The record followed here is patent EP0726261A1, “Herbidical 1,2,4 thiadiazoles” (American Cyanamid Company, priority 1995, dated 1996).

Holding throughout (type): in vivo
In experiment [1] the test system is Avena fatua. Nature of the experiment: Herbicidal activity, preemergence test (Example 66). Set-up: key: A rating of 0 indicates growth as untreated control; a rating of 9 indicates death. The note with it: pre; 1000 g/ha; assessed visually twenty days after spraying. Here is the method: (§1) To evaluate their herbicidal activity, compounds according to the invention are tested using a representative range of plants: ZEAMX Zea mays ORYSA Oryza sativa GLXMA Glycine max BEAVA Beta vulgaris LIUUT Linum usitatissimum AVEFA Avena fatua ECHCG Echinochloa crus-galli SINAL Sinapsis alba
(§2) The tests fall into two categories, preemergence and postemergence. The preemergence tests involve spraying a liquid formulation of the compound onto the soil in which the seeds of the plant species mentioned above have recently been sown. The postemergence tests involve spraying a liquid formulation of the compound onto seedling plants of the above species.
(§3) The soil used in the tests is a prepared horticultural loam.
(§4) The formulations used in the tests are prepared from solutions of the test compounds in acetone containing 0.4% by weight of an alkylphenol/ethylene oxide condensate available under the trademark TRITON X-155. These acetone solutions are diluted with water and the resulting formulations applied at dosage levels corresponding to 1000 g of active material per hectare in a volume equivalent to 900 litres per hectare.
(§5) In the preemergence tests, untreated sown soil, and in the postemergence tests, untreated soil bearing seedling plants, are used as controls.
(§6) The herbicidal effects of the test compounds are assessed visually twenty days after spraying the foliage and the soil and are recorded on a 0-9 scale. A rating of 0 indicates growth as untreated control, a rating of 9 indicates death. An increase of 1 unit on the linear scale approximates to an 11% increase in the level of effect.

In experiment [2] the test system is Beta vulgaris. The experiment is described as above. The note with it: pre; 1000 g/ha; assessed visually twenty days after spraying. Details: key: A rating of 0 indicates growth as untreated control; a rating of 9 indicates death. Here is the method:
as §1, §2, §3, §4, §5, §6

Experiment [3] concerns Echinochloa crus-galli. The experiment is described as above. Set-up: key: A rating of 0 indicates growth as untreated control; a rating of 9 indicates death. The note with it: pre; 1000 g/ha; assessed visually twenty days after spraying. Here is the method: as §1, §2, §3, §4, §5, §6
Experiment [4] deals with Glycine max. Described as above. Set-up: key: A rating of 0 indicates growth as untreated control; a rating of 9 indicates death. Conditions: pre; 1000 g/ha; assessed visually twenty days after spraying. Here is the method: as §1, §2, §3, §4, §5, §6
For experiment [5], the system named is Linum usitatissimum. Described as above. Set-up: key: A rating of 0 indicates growth as untreated control; a rating of 9 indicates death. Conditions: pre; 1000 g/ha; assessed visually twenty days after spraying. Here is the method:
as §1, §2, §3, §4, §5, §6

Experiment [6] concerns Oryza sativa. Described as above. Details: key: A rating of 0 indicates growth as untreated control; a rating of 9 indicates death. The note with it: pre; 1000 g/ha; assessed visually twenty days after spraying. The procedure:
as §1, §2, §3, §4, §5, §6

Experiment [7] concerns Sinapsis alba. The experiment is described as above. Details: key: A rating of 0 indicates growth as untreated control; a rating of 9 indicates death. Conditions: pre; 1000 g/ha; assessed visually twenty days after spraying. Here is the method:
as §1, §2, §3, §4, §5, §6

Experiment [8] has as its system Zea mays. Described as above. Details: key: A rating of 0 indicates growth as untreated control; a rating of 9 indicates death. The note with it: pre; 1000 g/ha; assessed visually twenty days after spraying. Here is the method: as §1, §2, §3, §4, §5, §6
Experiment [9] deals with Glycine max. The experiment can be described thus: Herbicidal activity, postemergence test (Example 66). Conditions: post; 1000 g/ha; assessed visually twenty days after spraying. The procedure:
as §1, §2, §3, §4, §5, §6

Experiment [10] deals with Avena fatua. Described as above. Set-up: key: A rating of 0 indicates growth as untreated control; a rating of 9 indicates death. The note with it: post; 1000 g/ha; assessed visually twenty days after spraying. Here is the method: as §1, §2, §3, §4, §5, §6
Experiment [11] deals with Beta vulgaris. The description is as above. Set-up: key: A rating of 0 indicates growth as untreated control; a rating of 9 indicates death. Conditions: post; 1000 g/ha; assessed visually twenty days after spraying. Here is the method: as §1, §2, §3, §4, §5, §6
Experiment [12] has as its system Echinochloa crus-galli. The experiment is described as above. Details: key: A rating of 0 indicates growth as untreated control; a rating of 9 indicates death. The note with it: post; 1000 g/ha; assessed visually twenty days after spraying. Here is the method:
as §1, §2, §3, §4, §5, §6

In experiment [13] the test system is Linum usitatissimum. The experiment is described as above. Details: key: A rating of 0 indicates growth as untreated control; a rating of 9 indicates death. Conditions: post; 1000 g/ha; assessed visually twenty days after spraying. The procedure: as §1, §2, §3, §4, §5, §6
The subject of experiment [14] is Oryza sativa. The description is as above. Details: key: A rating of 0 indicates growth as untreated control; a rating of 9 indicates death. Conditions: post; 1000 g/ha; assessed visually twenty days after spraying. The procedure: as §1, §2, §3, §4, §5, §6
Experiment [15] has as its system Sinapsis alba. The description is as above. Set-up: key: A rating of 0 indicates growth as untreated control; a rating of 9 indicates death. Conditions: post; 1000 g/ha; assessed visually twenty days after spraying. Here is the method:
as §1, §2, §3, §4, §5, §6

The test system of experiment [16] is Zea mays. The description is as above. Set-up: key: A rating of 0 indicates growth as untreated control; a rating of 9 indicates death. The note with it: post; 1000 g/ha; assessed visually twenty days after spraying. The procedure:
as §1, §2, §3, §4, §5, §6

As for `C[C@H](NC(=O)c1nc(C(C)(C)C)ns1)c1ccccc1` [Example 8, (S)-3-tert-Butyl-[1,2,4]thiadiazole-5-carboxylic acid, 1-(phenylethyl)amide], the “herbicidal effects on a 0-9 scale, AVEFA” value in the experiment with Avena fatua [1] is given as 0; in the experiment with Avena fatua [10], 6. Further, the “herbicidal effects on a 0-9 scale, BEAVA” value with Beta vulgaris [2] is 8; in the experiment on Beta vulgaris [11] it was 9. Further, the figures for the “herbicidal effects on a 0-9 scale, ECHCG” value in the experiment with Echinochloa crus-galli [3] and in the experiment with Echinochloa crus-galli [12] were 0 and 8, respectively. Moreover, the “herbicidal effects on a 0-9 scale, GLXMA” value in the experiment with Glycine max [4] was found to be 0; in the experiment with Glycine max [9] it was 6. Also, the “herbicidal effects on a 0-9 scale, LIUUT” value in the experiment on Linum usitatissimum [5] was 0; in the experiment on Linum usitatissimum [13] it was 9. In addition, the “herbicidal effects on a 0-9 scale, ORYSA” value with Oryza sativa [6] and in the experiment on Oryza sativa [14] was 0 throughout. Further, the “herbicidal effects on a 0-9 scale, SINAL” value is 8 with Sinapsis alba [7] and 9 with Sinapsis alba [15]. The “herbicidal effects on a 0-9 scale, ZEAMX” value with Zea mays [8] and in the experiment on Zea mays [16] was 0 each time.
For `CC(C)c1nsc(C(=O)N[C@@H](C)c2ccccc2)n1` [Example 10, (S)-3-Isopropyl-[1,2,4]thiadiazole-5-carboxylic acid, 1-(phenylethyl)amide], the “herbicidal effects on a 0-9 scale, AVEFA” value is given as 0 in the experiment on Avena fatua [1] and 5 in the experiment on Avena fatua [10]. Also, the “herbicidal effects on a 0-9 scale, BEAVA” value in the experiment with Beta vulgaris [2] turned out to be 7; in the experiment on Beta vulgaris [11] it was 8. Besides, the results for the “herbicidal effects on a 0-9 scale, ECHCG” value with Echinochloa crus-galli [3] and in the experiment on Echinochloa crus-galli [12] were 5 and 8, respectively. Further, the “herbicidal effects on a 0-9 scale, GLXMA” value with Glycine max [4] amounted to 0; in the experiment on Glycine max [9] it was 5. Also, the “herbicidal effects on a 0-9 scale, LIUUT” value with Linum usitatissimum [5] was determined as 4; with Linum usitatissimum [13] it was 8. Besides, the “herbicidal effects on a 0-9 scale, ORYSA” value with Oryza sativa [6] and in the experiment on Oryza sativa [14] was 0 each time. The “herbicidal effects on a 0-9 scale, SINAL” value came out at 7 in the experiment with Sinapsis alba [7] and 8 in the experiment on Sinapsis alba [15]. The “herbicidal effects on a 0-9 scale, ZEAMX” value in the experiment with Zea mays [8] is on record as 0; in the experiment with Zea mays [16], 2.
`CC(NC(=O)c1nc(-c2ccccc2)ns1)c1cccs1` (racemic) [Example 4, (R/S)-3-Phenyl-[1,2,4]thiadiazole-5-carboxylic acid, [1-(2-thienyl)ethyl]amide]: the “herbicidal effects on a 0-9 scale, AVEFA” value in the experiment on Avena fatua [1] was 0; with Avena fatua [10], 5. In addition, the figures for the “herbicidal effects on a 0-9 scale, BEAVA” value in the experiment with Beta vulgaris [2] and in the experiment with Beta vulgaris [11] were 0 and 8, respectively. Moreover, the “herbicidal effects on a 0-9 scale, ECHCG” value in the experiment with Echinochloa crus-galli [3] was 0; with Echinochloa crus-galli [12] it was 8. The “herbicidal effects on a 0-9 scale, GLXMA” value in the experiment with Glycine max [4] is 0; in the experiment with Glycine max [9] it was 5. Further, the “herbicidal effects on a 0-9 scale, LIUUT” value in the experiment with Linum usitatissimum [5] amounted to 0; in the experiment with Linum usitatissimum [13], 7. Besides, the “herbicidal effects on a 0-9 scale, ORYSA” value in the experiment with Oryza sativa [6] and in the experiment with Oryza sativa [14] was 0 in each case. In addition, the entries for the “herbicidal effects on a 0-9 scale, SINAL” value with Sinapsis alba [7] and in the experiment on Sinapsis alba [15] were 0 and 8, respectively. The “herbicidal effects on a 0-9 scale, ZEAMX” value with Zea mays [8] and in the experiment with Zea mays [16] was 0 each time.
Consider `O=C(NCc1ccccc1)c1nc(-c2ccc(F)cc2)ns1` [Example 20], for which the “herbicidal effects on a 0-9 scale, AVEFA” value with Avena fatua [1] and with Avena fatua [10] was 0 each time. For the same compound, the “herbicidal effects on a 0-9 scale, BEAVA” value in the experiment on Beta vulgaris [2] was determined as 0; in the experiment on Beta vulgaris [11], 9. Further, the “herbicidal effects on a 0-9 scale, ECHCG” value with Echinochloa crus-galli [3] amounted to 0; in the experiment on Echinochloa crus-galli [12], 2. Besides, the figures for the “herbicidal effects on a 0-9 scale, GLXMA” value in the experiment with Glycine max [4] and in the experiment on Glycine max [9] were 0 and 6, respectively. Moreover, the “herbicidal effects on a 0-9 scale, LIUUT” value in the experiment with Linum usitatissimum [5] is reported as 0; in the experiment on Linum usitatissimum [13] it was 6. In addition, the “herbicidal effects on a 0-9 scale, ORYSA” value with Oryza sativa [6] and in the experiment with Oryza sativa [14] was 0 each time. In addition, the “herbicidal effects on a 0-9 scale, SINAL” value with Sinapsis alba [7] was 0; in the experiment on Sinapsis alba [15] it was 9. Moreover, the “herbicidal effects on a 0-9 scale, ZEAMX” value with Zea mays [8] and in the experiment on Zea mays [16] was 0 in each case.
